The source of these data is PubChem BioAssay AID977628 (Broad Institute, 2014).

For assay [1], the system named is E. coli WT GFP strain growth, fluorescence, 24 h. Briefly: growth of wild-type and h24-humanized E. coli strains – h24 mutant RFP vs wild-type GFP, cherry-pick, dose response (AID 977628).
In assay [2] the test system is E. coli mixed WT/h24 culture total growth, OD600, 24 h. The description is as above.

Records with an inconclusive call do not appear. Calls of active or inactive are those of the source.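 How the source made its calls: active means compound lowering the normal-ribosome reporter at least twice as much as the humanized-ribosome reporter, growth loss under a set limit; inconclusive means no clear call, values can overlap the other calls; inactive means the rest.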

Consider `COc1ccc(NC(=O)CN(c2ccccc2OC)S(=O)(=O)c2cccs2)cc1Cl`, for which the AC50 in assay [1] was > 100 µM (inactive); in assay [2] it was over 100 µM.

With `O=C(c1ccc(-c2ccccc2)c(F)c1)C1CCCN(CCCn2cccn2)C1` (centres undefined), the values for the AC50 in assay [1] and in assay [2] were > 100 µM (inactive) and over 100 µM, respectively.

Consider `COC(=O)c1cc(C(=O)Cc2ccccc2)c[nH]1`, for which the AC50 in assay [1] is > 100 µM (inactive); in assay [2] it was over 100 µM.

For the molecule `Cc1cc(NC(=O)COC(=O)CSCc2ccc(Cl)c(Cl)c2)no1`, the AC50 in assay [1] was > 100 µM (inactive); in assay [2] it was over 100 µM.

Take `O=C(NCc1nnnn1-c1ccc(Cl)cc1)c1ccc([N+](=O)[O-])o1`: the AC50 in assay [1] is > 100 µM (inactive); in assay [2], over 100 µM.

Regarding `Cc1ccc(N(CC(O)Cn2nc(C)cc2C)S(=O)(=O)c2ccc3ccccc3c2)cc1` (centres undefined), the AC50 in assay [1] is > 100 µM (inactive); in assay [2], 49.4 µM.

As to `CN(C)C(=O)C1C2NC(=S)N(c3cccc(Cl)c3)C1(C)Oc1ccc(Cl)cc12` (centres undefined), the AC50 is > 100 µM (inactive) in assay [1] and over 100 µM in assay [2].

For `Fc1ccc(-n2cc(CNCCc3cccnc3)c(-c3ccccc3Cl)n2)cc1`, the AC50 in assay [1] is > 100 µM (inactive); in assay [2], 49.2 µM.

As for `O=C(NCc1ccc(Cl)cc1)c1csc(-c2cccnc2)n1`, the figures for the AC50 in assay [1] and in assay [2] were > 100 µM (inactive) and 49.1 µM, respectively.

As to `CCOc1ccc(CCNC(=O)CCc2nc3ccccc3[nH]2)cc1OCC`, the AC50 in assay [1] was > 100 µM (inactive); in assay [2] it was over 100 µM.

Regarding `Cc1c(C(=O)O)oc2ccc(S(=O)(=O)NC3CCCCCCC3)cc12`, the AC50 is > 100 µM (inactive) in assay [1] and 41.4 µM in assay [2].

Take `O=S(=O)(Nc1ccc(-c2nc3cccnc3s2)cc1)c1cc(F)ccc1F`: the AC50 in assay [1] was > 100 µM (inactive); in assay [2] it was over 100 µM.

Consider `O=C(COc1ccc(Cl)cc1)Nc1ncc([N+](=O)[O-])s1`, for which the AC50 in assay [1] was > 100 µM (inactive); in assay [2], 40.2 µM.

As to `O=C(Cc1cccc(NC(=O)C2CCCN(C(=O)CCc3ccccc3)C2)c1)Nc1cccc(C(=O)N2CCCC2)c1` (centres undefined), the AC50 in assay [1] was > 100 µM (inactive); in assay [2] it was over 100 µM.

As for `Cc1nn(-c2ccccc2)c(C)c1NC(=O)COc1ccc2ccccc2c1`, the AC50 was > 100 µM (inactive) in assay [1] and 42.8 µM in assay [2].

For `Cc1cc(NC(=O)CS(=O)(=O)c2cn(Cc3cccc(Br)c3)c3ccccc23)no1`, the results for the AC50 in assay [1] and in assay [2] were > 100 µM (inactive) and 40 µM, respectively.

For `Cc1cccc(Nc2nc(-c3ccc(F)cc3)cs2)n1`, the AC50 in assay [1] is > 100 µM (inactive); in assay [2], over 100 µM.

Regarding `CC(=O)c1c(C)nn(CC(O)COc2ccc3c(c2)CCC3)c1C` (centres undefined), the results for the AC50 in assay [1] and in assay [2] were > 100 µM (inactive) and 50.1 µM, respectively.

Consider `COC(=O)c1ccc2nc(-c3ccc(OC)c(OC)c3)c(Cc3ccc(C)cc3)n2c1`, for which the AC50 in assay [1] was > 100 µM (inactive); in assay [2], over 100 µM.

Turning to `COc1ccc(C(=O)Nc2ccc3nc(C)sc3c2)cc1OC`, the AC50 is > 100 µM (inactive) in assay [1] and over 100 µM in assay [2].

With `COc1ccc(NC(=O)CCC(=O)c2cccs2)cc1S(=O)(=O)Nc1ccc(Cl)cc1`, the AC50 is > 100 µM (inactive) in assay [1] and over 100 µM in assay [2].

Take `CCOc1ccc(S(=O)(=O)Nc2ccc(S(=O)(=O)N3CCCC3)cc2)cc1`: the AC50 in assay [1] was > 100 µM (inactive); in assay [2], 40.8 µM.

Take `Cc1cc(C(=O)COC(=O)c2ccc(Br)o2)c(C)n1C`: the AC50 in assay [1] was > 100 µM (inactive); in assay [2], 42.5 µM.

As for `Cc1ccc(NC(=O)c2ccc(CSc3ccccn3)cc2)c(O)c1`, the AC50 is > 100 µM (inactive) in assay [1] and 22.2 µM in assay [2].

As to `CN(C)C(=O)c1ccc(NC(=O)CSc2nc3ccccc3[nH]2)cc1`, the results for the AC50 in assay [1] and in assay [2] were > 100 µM (inactive) and over 100 µM, respectively.

On to `CCOC(=O)c1ccc(CC(=O)c2oc3cc(O)ccc3c2C)o1`, for which the AC50 was > 100 µM (inactive) in assay [1] and over 100 µM in assay [2].

On to `CC(C)Oc1cccc(C(=O)C2CCCN(C(=O)c3cc(C(F)(F)F)[nH]n3)C2)c1` (centres undefined), for which the values for the AC50 in assay [1] and in assay [2] were > 100 µM (inactive) and 51.3 µM, respectively.

In the case of `COc1ccc(C(=O)Cn2nnc(-c3ccccc3F)n2)cc1`, the values for the AC50 in assay [1] and in assay [2] were > 100 µM (inactive) and 48.8 µM, respectively.

On to `Nc1ncncc1-c1ccc(Cl)cc1`, for which the AC50 in assay [1] is > 100 µM (inactive); in assay [2], over 100 µM.

As for `O=C(CC(=O)c1cccs1)c1ccncc1`, the AC50 is > 100 µM (inactive) in assay [1] and over 100 µM in assay [2].

For the molecule `CSc1c(-c2ccccn2)c(N)nn1C(=O)C1CC1`, the AC50 in assay [1] is > 100 µM (inactive); in assay [2] it was over 100 µM.

Regarding `N#CCC(=O)Nc1ccc(C(=O)OCC(=O)Nc2ccc3ccccc3c2)cc1`, the AC50 in assay [1] is > 100 µM (inactive); in assay [2] it was over 100 µM.

Take `O=C(NCC(c1ccc(F)cc1)N1CCOCC1)c1ccc([N+](=O)[O-])o1` (centres undefined): the AC50 in assay [1] was > 100 µM (inactive); in assay [2], over 100 µM.

`CCN(c1ccccc1)S(=O)(=O)c1ccc(Cl)c(C(=O)NCc2ccco2)c1`: the values for the AC50 in assay [1] and in assay [2] were > 100 µM (inactive) and 38.5 µM, respectively.

Turning to `OCCN(Cc1ccccc1)Cc1ccc(Cl)cc1`, the AC50 was > 100 µM (inactive) in assay [1] and over 100 µM in assay [2].

Consider `C(=C(c1ccccc1)c1ccccc1)c1ccccn1`, for which the results for the AC50 in assay [1] and in assay [2] were > 100 µM (inactive) and over 100 µM, respectively.

For the molecule `CC(C)(C)c1ccc2c(c1)C(c1ccc3c(c1)OCO3)CC(=O)O2` (centres undefined), the AC50 in assay [1] was > 100 µM (inactive); in assay [2], over 100 µM.

On to `O=C(CN(c1ccc(F)cc1)S(=O)(=O)c1ccccc1)Nc1ccccc1C(=O)O`, for which the AC50 in assay [1] was > 100 µM (inactive); in assay [2], over 100 µM.

On to `COc1cc(C(F)(F)F)c(C(=O)N(C)Cc2ccc(Cl)c(Cl)c2)cn1`, for which the AC50 in assay [1] is > 100 µM (inactive); in assay [2], over 100 µM.

`COc1ccc(C2=Nc3ccccc3NC(=O)C2N(C(=O)c2ccnc3ccccc23)c2ccccc2)cc1` (centres undefined): the AC50 in assay [1] is > 100 µM (inactive); in assay [2], 43 µM.

Regarding `Nc1[nH]c(C(=O)c2ccccc2)c(-c2ccc(Br)cc2)c1C(=O)c1cccs1`, the AC50 is > 100 µM (inactive) in assay [1] and over 100 µM in assay [2].

With `NC(=O)C1CCN(c2cc(Cl)ccc2[N+](=O)[O-])CC1`, the AC50 in assay [1] was > 100 µM (inactive); in assay [2], over 100 µM.

Take `O=C(Cc1coc2cc(O)ccc12)N1CCN(S(=O)(=O)c2ccc(Br)cc2)CC1`: the AC50 in assay [1] is > 100 µM (inactive); in assay [2] it was 50.5 µM.

`CCOC(=O)c1c(C)nsc1NCc1ccccc1`: the values for the AC50 in assay [1] and in assay [2] were > 100 µM (inactive) and 30.9 µM, respectively.

Consider `COc1ccc(S(=O)(=O)N2CCCCN3[C@@H](CO)[C@H](c4ccc(C#CC(C)C)cc4)[C@@H]3C2)cc1`, for which the AC50 in assay [1] was > 100 µM (inactive); in assay [2], 47 µM.

For the molecule `O=C(Nc1cccc(Cl)c1)N1C[C@@H]2[C@H](c3ccccc31)[C@H](CO)N2Cc1ccncc1`, the AC50 is > 100 µM (inactive) in assay [1] and over 100 µM in assay [2].

As to `Cc1cc(C(=O)OCC(=O)Nc2cccc(S(N)(=O)=O)c2)c2ccccc2n1`, the AC50 was > 100 µM (inactive) in assay [1] and over 100 µM in assay [2].

For `CC1CCN(c2ccc3nnc(CCC(=O)Nc4cccc(F)c4)n3n2)CC1`, the AC50 in assay [1] is > 100 µM (inactive); in assay [2] it was over 100 µM.

As for `CC(=O)c1c(N2CCOCC2)nc2ccc(Cl)cc2c1-c1ccccc1`, the figures for the AC50 in assay [1] and in assay [2] were > 100 µM (inactive) and over 100 µM, respectively.

As for `CCC(=O)Nc1nc2c(OC)ccc(OC)c2s1`, the AC50 in assay [1] is > 100 µM (inactive); in assay [2], over 100 µM.

In the case of `CN1c2ccc(C#Cc3cccnc3)cc2[C@@H]2[C@@H](CCN2C(=O)c2cccc(F)c2)[C@H]1CO`, the figures for the AC50 in assay [1] and in assay [2] were > 100 µM (inactive) and over 100 µM, respectively.

Consider `CN(C)CCCN(C(=O)c1ccc(S(=O)(=O)N(C)Cc2ccccc2)cc1)c1nc2c(F)cccc2s1`, for which the results for the AC50 in assay [1] and in assay [2] were > 100 µM (inactive) and 39.3 µM, respectively.

With `Cc1cccc(C)c1-n1nnnc1C1(C)CCC(=O)N1Cc1cccs1` (centres undefined), the AC50 in assay [1] was > 100 µM (inactive); in assay [2], over 100 µM.

Regarding `CC(C)Oc1ccc(C(CC(=O)O)NC(=O)C(Sc2ccccc2)c2ccccc2)cc1` (centres undefined), the AC50 is > 100 µM (inactive) in assay [1] and over 100 µM in assay [2].

With `NS(=O)(=O)c1cccc(NC(=O)CSc2nc3ccccc3n2-c2ccccc2)c1`, the AC50 in assay [1] was > 100 µM (inactive); in assay [2], 38.1 µM.

In turn, `COc1cccc(-c2ccc(NC(=O)C3CCCN(Cc4cnn(C(C)C)c4)C3)cc2)c1` (centres undefined) registered a concentration at half-maximal activity (AC50) in assay [2] of over 100 µM.

In turn, `CC1CCCC(NC(=O)COC(=O)[C@@H]2CC(O)CN2S(=O)(=O)c2ccc3c(c2)OCCO3)C1C` (some centres undefined) displayed an AC50 in assay [2] of over 100 µM.

Regarding `CCN(CC)CC(=O)Nc1sc2c(c1C(=O)c1ccccc1OC)CCC2`, the AC50 in assay [2] is over 100 µM.

Regarding `Fc1ccc(Br)cc1SCCc1ccncc1`, the AC50 in assay [2] was over 100 µM.

In assay [2], `CN(Cc1nnc(-c2ccc(F)cc2)o1)c1ccccc1` yielded an AC50 of over 100 µM.

For the molecule `COc1ccc(CC(=O)Oc2ccc(C)cc2C)cc1`, in assay [2], the AC50 is over 100 µM.

For `Nc1ccccc1Sc1c[nH]c2ccccc12`, in assay [2], the AC50 was over 100 µM.

In turn, `COC(=O)c1sc(C(C)(C)C)cc1CS(=O)(=O)c1ccc(Cl)cc1` gave an AC50 in assay [2] of over 100 µM.

`O=C(Nc1cccc(S(=O)(=O)c2cccc(NC(=O)C3CC3)c2)c1)C1CC1` returned an AC50 in assay [2] of 46.7 µM.

In assay [2], `CCOC(=O)Cc1nnc(NC(=O)CSc2nc3ccccc3[nH]2)s1` returned an AC50 of over 100 µM.

In assay [2], `O=C(COC(=O)CCC(=O)c1ccc(F)cc1)Nc1cccc(S(=O)(=O)N2CCCC2)c1` returned an AC50 of over 100 µM.

As to `O=C(CN1CCCCC1)n1c2ccccc2c2ccccc21`, the AC50 in assay [2] is over 100 µM.

In the case of `O=C(Nc1nc2ccccc2n1CCN1CCOCC1)c1ccccc1`, the AC50 in assay [2] was over 100 µM.

`COC(=O)c1cc(S(=O)(=O)NCc2ccc3c(c2)OCO3)cn1C` returned an AC50 in assay [2] of over 100 µM.
